Read-outs that look alike come from different tables or passages of the source.
Columns and labels:
Klebsiella pneumoniae = assay: Checkerboard broth dilution synergy study (mic); assay type: cell-based; settings: for MIC: Klebsiella pneumoniae, read-out: mic, drug alone
E. cloacae = assay: Checkerboard broth dilution synergy study (mic); assay type: cell-based; settings: for MIC: Enterobacter cloacae, read-out: mic, drug alone
Pseudomonas maltophilia = assay: Checkerboard broth dilution synergy study (mic); assay type: cell-based; settings: for MIC: Stenotrophomonas maltophilia, read-out: mic, drug alone
Proteus rettgeri = assay: Checkerboard broth dilution synergy study (mic); assay type: cell-based; settings: for MIC: Providencia rettgeri, read-out: mic, drug alone
clinical = settings: in vivo, iv, mean serum concentration
Proteus vulgaris = assay: Checkerboard broth dilution synergy study (mic); assay type: cell-based; settings: Table II; for MIC: Proteus vulgaris, read-out: mic, drug alone
Pseudomonas pseudomallei = assay: microbe, parasite or virus in culture; assay type: cell-based
Proteus mirabilis = assay: Checkerboard broth dilution synergy study (mic); assay type: cell-based; settings: Table II, strain Allen
Acinetobacter sp. = assay: Checkerboard broth dilution synergy study (mic); assay type: cell-based; settings: for MIC: Acinetobacter, read-out: mic, drug alone
E. coli = assay: Checkerboard broth dilution synergy study (mic); assay type: cell-based; settings: Table II; for MIC: Escherichia coli, read-out: mic, drug alone
Pseudomonas aeruginosa = assay: Checkerboard broth dilution synergy study (mic); assay type: cell-based; settings: for MIC: Pseudomonas aeruginosa, read-out: mic, drug alone

COC1(NC(=O)C(C(=O)O)c2ccc(O)cc2)C(=O)N2C(C(=O)O)=C(CSc3nnnn3C)COC21 (centres unmarked) [1-oxa compound I, moxalactam]
1200 ng/mL: concentration at 11 h (clinical)
0.25 µg/mL: MIC (Klebsiella pneumoniae; Table II, strain 933) | MIC (Klebsiella pneumoniae; Table III, isolate 938) | MIC (E. cloacae; Table II, strain 1246) | MIC (E. cloacae; Table III, isolate 1296) | MIC (E. cloacae; Table III, isolate McQuinn) | mic of each drug in combination I + T (E. cloacae; Table II, strain 1253) | mic of each drug in combination I + P (E. cloacae; Table II, strain B293) | MIC (Proteus rettgeri; Table II, strain 65) | MIC (Proteus rettgeri; Table III, isolate 53) | MIC (Proteus rettgeri; Table III, isolate 136-1) | MIC (E. coli; strain Dill)
8 µg/mL: MIC (Pseudomonas maltophilia; Table II, strain 505) | MIC (Pseudomonas maltophilia; Table III, isolate 505) | mic of each drug in combination I + A (Pseudomonas maltophilia; Table III, isolate 10) | MIC (Acinetobacter sp.; Table II, strain 106) | MIC (Acinetobacter sp.; Table III, isolate 106) | mic of each drug in combination I + A (Acinetobacter sp.; Table III, isolate 107) | mic of each drug in combination I + A (Acinetobacter sp.; Table III, isolate 109) | MIC (Pseudomonas aeruginosa; Table II, strain 424) | MIC (Pseudomonas aeruginosa; Table III, isolate 316-2) | mic of each drug in combination I + P (Pseudomonas aeruginosa; Table II, strain 366) | mic of each drug in combination I + P (Pseudomonas aeruginosa; Table II, strain Davis)
32 µg/mL: MIC (Pseudomonas maltophilia; Table II, strain 10) | MIC (Pseudomonas maltophilia; Table III, isolate 10) | MIC (Pseudomonas pseudomallei; Burkholderia pseudomallei, read-out: mic, drug alone) | MIC (Acinetobacter sp.; Table II, strain 107) | MIC (Acinetobacter sp.; Table III, isolate 107) | MIC (Pseudomonas aeruginosa; Table II, strain 447) | MIC (Pseudomonas aeruginosa; Table III, isolate 362) | MIC (Pseudomonas aeruginosa; Table III, isolate 363) | MIC (Pseudomonas aeruginosa; Table III, isolate Brownlee)
4 µg/mL: MIC (E. cloacae; Table II, strain 1253) | MIC (E. cloacae; Table III, isolate 1253) | MIC (Pseudomonas maltophilia; Table II, strain 11) | mic of each drug in combination I + T (Pseudomonas maltophilia; Table II, strain 10) | mic of each drug in combination I + A (Pseudomonas pseudomallei; Table III, isolate not named) | mic of each drug in combination I + P (Pseudomonas aeruginosa; Table II, strain 84) | mic of each drug in combination I + P (Pseudomonas aeruginosa; Table II, strain 447) | mic of each drug in combination I + T (Pseudomonas aeruginosa; Table II, strain 1484) | mic of each drug in combination I + A (Pseudomonas aeruginosa; Table III, isolate 316-2) | mic of each drug in combination I + A (Pseudomonas aeruginosa; Table III, isolate 362)
< 0.012 µg/mL: mic of each drug in combination I + T (Klebsiella pneumoniae; Table II, strain 130) | mic of each drug in combination I + T (Klebsiella pneumoniae; Table II, strain 933)
> 64 µg/mL: MIC (Pseudomonas aeruginosa; Table II, strain Davis) | MIC (Pseudomonas aeruginosa; Table III, isolate 610)
< 0.12 µg/mL: mic of each drug in combination I + T (E. cloacae; Table II, strain 1246) | mic of each drug in combination I + T (Proteus vulgaris; strain 363) | mic of each drug in combination I + T (Proteus vulgaris; strain Shide) | mic of each drug in combination I + T (Proteus mirabilis) | mic of each drug in combination I + P (E. coli; strain 46-2) | mic of each drug in combination I + T (E. coli; strain 46-2) | mic of each drug in combination I + T (E. coli; strain 77-3) | mic of each drug in combination I + T (E. coli; strain 136-3) | mic of each drug in combination I + T (E. coli; strain 1253) | mic of each drug in combination I + T (E. coli; strain 1260) | mic of each drug in combination I + P (E. coli; strain 1262) | mic of each drug in combination I + T (E. coli; strain 1262) | mic of each drug in combination I + P (E. coli; strain 1415) | mic of each drug in combination I + T (E. coli; strain 1415) | mic of each drug in combination I + P (E. coli; strain Briley) | mic of each drug in combination I + T (E. coli; strain Briley) | mic of each drug in combination I + T (E. coli; strain Dill)
0.06 µg/mL: mic of each drug in combination I + A (Klebsiella pneumoniae; Table III, isolate 1231) | mic of each drug in combination I + A (E. cloacae; Table III, isolate 1296) | MIC (Proteus vulgaris; strain Shide) | MIC (Proteus mirabilis; Proteus mirabilis, read-out: mic, drug alone) | MIC (E. coli; strain 136-3)
0.5 µg/mL: MIC (Klebsiella pneumoniae; Table II, strain 130) | MIC (Klebsiella pneumoniae; Table II, strain 512) | MIC (Klebsiella pneumoniae; Table III, isolate 130) | MIC (Klebsiella pneumoniae; Table III, isolate 1231) | mic of each drug in combination I + P (Klebsiella pneumoniae; Table II, strain 214-1) | mic of each drug in combination I + P (Klebsiella pneumoniae; Table II, strain 512) | mic of each drug in combination I + P (Klebsiella pneumoniae; Table II, strain 1204-2) | mic of each drug in combination I + A (Klebsiella pneumoniae; Table III, isolate 130) | MIC (E. cloacae; Table II, strain B293) | mic of each drug in combination I + T (Pseudomonas maltophilia; Table II, strain 11) | MIC (Proteus rettgeri; Table III, isolate 768) | mic of each drug in combination I + P (E. coli; strain 1253) | mic of each drug in combination I + T (Pseudomonas aeruginosa; Table II, strain 366)
1 µg/mL: mic of each drug in combination I + A (Pseudomonas aeruginosa; Table III, isolate 363) | mic of each drug in combination I + A (Pseudomonas aeruginosa; Table III, isolate Brownlee)
2 µg/mL: MIC (Klebsiella pneumoniae; Table II, strain 214-1) | MIC (Klebsiella pneumoniae; Table II, strain 463) | MIC (Klebsiella pneumoniae; Table II, strain 1204-2) | MIC (Klebsiella pneumoniae; Table III, isolate 214-1) | MIC (Klebsiella pneumoniae; Table III, isolate 463) | mic of each drug in combination I + P (Klebsiella pneumoniae; Table II, strain 463) | mic of each drug in combination I + A (Klebsiella pneumoniae; Table III, isolate 463) | mic of each drug in combination I + P (E. cloacae; Table II, strain 1253) | mic of each drug in combination I + A (Pseudomonas maltophilia; Table III, isolate 505) | MIC (Proteus rettgeri; Table III, isolate 1422) | mic of each drug in combination I + A (Proteus rettgeri; Table III, isolate 1422) | mic of each drug in combination I + T (Acinetobacter sp.; Table II, strain 28-2) | mic of each drug in combination I + T (Acinetobacter sp.; Table II, strain 107) | mic of each drug in combination I + T (Acinetobacter sp.; Table II, strain 109) | mic of each drug in combination I + A (Acinetobacter sp.; Table III, isolate 28-1) | mic of each drug in combination I + T (Pseudomonas aeruginosa; Table II, strain 84) | mic of each drug in combination I + P (Pseudomonas aeruginosa; Table II, strain 424) | mic of each drug in combination I + T (Pseudomonas aeruginosa; Table II, strain 424) | mic of each drug in combination I + T (Pseudomonas aeruginosa; Table II, strain Davis)
< 0.5 µg/mL: mic of each drug in combination I + T (Pseudomonas aeruginosa; Table II, strain 447)
< 0.06 µg/mL: mic of each drug in combination I + A (Klebsiella pneumoniae; Table III, isolate 214-1) | mic of each drug in combination I + A (Klebsiella pneumoniae; Table III, isolate 938) | mic of each drug in combination I + A (E. cloacae; Table III, isolate 228) | mic of each drug in combination I + A (E. cloacae; Table III, isolate 1253) | mic of each drug in combination I + A (Proteus rettgeri; Table III, isolate 53) | mic of each drug in combination I + A (Proteus rettgeri; Table III, isolate 768) | mic of each drug in combination I + A (Proteus rettgeri; Table III, isolate 997) | mic of each drug in combination I + A (Acinetobacter sp.; Table III, isolate 28-2) | mic of each drug in combination I + A (Acinetobacter sp.; Table III, isolate 106)
64 µg/mL: MIC (Pseudomonas aeruginosa; Table II, strain 1484)
0.4 µg/mL: MIC (Proteus rettgeri; Table III, isolate 997)
0.03 µg/mL: MIC (E. coli; strain 46-2) | MIC (E. coli; strain 77-3) | MIC (E. coli; strain 1260) | MIC (E. coli; strain 1262)
16 µg/mL: MIC (Acinetobacter sp.; Table II, strain 28-1) | MIC (Acinetobacter sp.; Table II, strain 28-2) | MIC (Acinetobacter sp.; Table II, strain 109) | MIC (Acinetobacter sp.; Table III, isolate 28-1) | MIC (Acinetobacter sp.; Table III, isolate 28-2) | MIC (Acinetobacter sp.; Table III, isolate 109) | MIC (Pseudomonas aeruginosa; Table II, strain 84) | MIC (Pseudomonas aeruginosa; Table II, strain 366) | mic of each drug in combination I + P (Pseudomonas aeruginosa; Table II, strain 1484)
0.12 µg/mL: MIC (E. cloacae; Table II, strain 1415) | MIC (E. cloacae; Table III, isolate 228) | MIC (E. cloacae; Table III, isolate 1415) | mic of each drug in combination I + T (E. cloacae; Table II, strain 1415) | mic of each drug in combination I + T (E. cloacae; Table II, strain B293) | mic of each drug in combination I + A (E. cloacae; Table III, isolate 1415) | mic of each drug in combination I + A (E. cloacae; Table III, isolate McQuinn) | mic of each drug in combination I + T (Proteus rettgeri; Table II, strain 65) | mic of each drug in combination I + A (Proteus rettgeri; Table III, isolate 136-1) | MIC (Proteus vulgaris; strain 363) | MIC (E. coli; strain Briley)
0.6 µg/mL: mic of each drug in combination I + T (Pseudomonas maltophilia; Table II, strain 505) | mic of each drug in combination I + T (Acinetobacter sp.; Table II, strain 28-1) | mic of each drug in combination I + T (Acinetobacter sp.; Table II, strain 106) | mic of each drug in combination I + A (Pseudomonas aeruginosa; Table III, isolate 610)
0.012 µg/mL: mic of each drug in combination I + T (Klebsiella pneumoniae; Table II, strain 214-1) | mic of each drug in combination I + T (Klebsiella pneumoniae; Table II, strain 463) | mic of each drug in combination I + T (Klebsiella pneumoniae; Table II, strain 512) | mic of each drug in combination I + T (Klebsiella pneumoniae; Table II, strain 1204-2)
